Values of other authors as cited in patent US5250561A, “Tetrahydroindazole, tetrahydrocyclopentapyrazole, and hexahydrocycloheptapyrazole compounds and their use as HMG-COA reductase inhibitors” (Ortho Pharmaceutical Corporation, priority 1992, dated 1993).

What was measured:
[1] = cited from earlier work
HMG-CoA reductase = conditions: lovastatin: open dihydroxy acid form; cited from earlier work

Compound | effect of combined administration with other hypolipidemic agents on LDL and total cholesterol concentrations ([1]; combination) | reduction of LDL cholesterol levels compared with cholestyramine and probucol ([1]; primary hypercholesterolemia) | increase in high density lipoprotein (HDL) cholesterol concentration ([1]; several large clinical studies) | inhibition of HMG-CoA reductase (in words) (HMG-CoA reductase)
CC[C@H](C)C(=O)O[C@H]1C[C@@H](C)C=C2C=C[C@H](C)[C@H](CC[C@@H]3C[C@@H](O)CC(=O)O3)[C@H]21 [lovastatin] | potentiate their effects on LDL and total cholesterol concentrations | reduced LDL cholesterol levels to a significantly greater extent | up to 10% | reversible, competitive inhibitor of the enzyme
CCC(C)(C)C(=O)O[C@H]1C[C@@H](C)C=C2C=C[C@H](C)[C@H](CC[C@@H]3C[C@@H](O)CC(=O)O3)[C@H]21 [simvastatin] | – | – | – | inhibitors of HMG-CoA reductase
